Activity calls are given as the source filed them. The calls are words filed in the database; no cut-off is given here.
Legend:
[1] = molecular target: T1, Tyrosine-protein kinase receptor UFO (Homo sapiens, UniProt P30530); assay: Inhibition of human N-terminal GST-fused Axl cytoplasmic domain (464 to 885 residues) expressed in baculovirus expression system using CSKtide as substrate measured after 1 hr by mobility shift assay
T1 sequence (P30530 whole entry): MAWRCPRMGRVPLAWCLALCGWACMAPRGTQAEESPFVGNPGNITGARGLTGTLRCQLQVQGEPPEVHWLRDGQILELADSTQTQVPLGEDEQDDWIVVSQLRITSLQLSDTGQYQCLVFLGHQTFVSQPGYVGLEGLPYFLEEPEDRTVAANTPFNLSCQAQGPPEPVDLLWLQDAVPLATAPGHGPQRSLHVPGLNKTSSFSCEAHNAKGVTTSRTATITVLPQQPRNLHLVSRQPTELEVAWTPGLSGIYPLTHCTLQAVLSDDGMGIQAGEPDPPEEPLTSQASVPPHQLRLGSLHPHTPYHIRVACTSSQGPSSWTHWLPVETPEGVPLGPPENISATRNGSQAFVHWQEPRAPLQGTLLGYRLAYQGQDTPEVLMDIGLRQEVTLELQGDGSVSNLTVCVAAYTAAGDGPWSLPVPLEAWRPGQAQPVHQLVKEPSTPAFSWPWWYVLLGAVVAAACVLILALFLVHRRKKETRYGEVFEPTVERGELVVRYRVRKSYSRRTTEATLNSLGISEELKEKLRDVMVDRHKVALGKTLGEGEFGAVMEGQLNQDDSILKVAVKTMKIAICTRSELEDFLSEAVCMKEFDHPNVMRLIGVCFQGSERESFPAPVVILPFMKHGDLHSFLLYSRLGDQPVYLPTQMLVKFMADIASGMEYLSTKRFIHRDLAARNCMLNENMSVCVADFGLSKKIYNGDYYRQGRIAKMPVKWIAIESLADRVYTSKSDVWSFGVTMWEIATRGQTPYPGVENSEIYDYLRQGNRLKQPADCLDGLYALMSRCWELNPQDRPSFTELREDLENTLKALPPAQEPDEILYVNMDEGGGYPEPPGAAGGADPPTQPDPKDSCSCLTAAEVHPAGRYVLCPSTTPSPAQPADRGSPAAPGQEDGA

[2] = molecular target: T2, Tyrosine-protein kinase receptor TYRO3 (Homo sapiens, UniProt Q06418); assay: Inhibition of Tyro3 (unknown origin)
T2 sequence (Q06418 whole entry): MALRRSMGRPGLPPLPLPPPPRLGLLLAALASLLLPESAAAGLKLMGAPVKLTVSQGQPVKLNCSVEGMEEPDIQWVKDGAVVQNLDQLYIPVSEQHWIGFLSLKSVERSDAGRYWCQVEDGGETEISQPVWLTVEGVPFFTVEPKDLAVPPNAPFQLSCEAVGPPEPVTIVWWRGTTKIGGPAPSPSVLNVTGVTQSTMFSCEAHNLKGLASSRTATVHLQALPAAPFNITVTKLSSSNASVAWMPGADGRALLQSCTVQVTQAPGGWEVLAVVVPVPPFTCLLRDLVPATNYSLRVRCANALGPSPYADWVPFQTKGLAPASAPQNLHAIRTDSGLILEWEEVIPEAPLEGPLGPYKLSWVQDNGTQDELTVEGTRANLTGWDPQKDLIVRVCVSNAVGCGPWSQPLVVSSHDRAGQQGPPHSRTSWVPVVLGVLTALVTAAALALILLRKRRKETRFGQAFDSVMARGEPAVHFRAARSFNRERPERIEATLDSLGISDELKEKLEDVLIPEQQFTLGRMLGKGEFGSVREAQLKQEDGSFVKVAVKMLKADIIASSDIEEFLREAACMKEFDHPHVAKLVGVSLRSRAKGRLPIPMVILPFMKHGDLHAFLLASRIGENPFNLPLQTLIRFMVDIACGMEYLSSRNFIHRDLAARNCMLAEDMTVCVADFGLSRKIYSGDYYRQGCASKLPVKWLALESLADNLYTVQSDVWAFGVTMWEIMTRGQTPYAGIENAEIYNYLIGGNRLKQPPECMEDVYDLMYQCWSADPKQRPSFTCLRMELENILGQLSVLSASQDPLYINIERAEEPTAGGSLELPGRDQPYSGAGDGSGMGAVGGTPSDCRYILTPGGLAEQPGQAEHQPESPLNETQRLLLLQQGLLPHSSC

PC-3 [3] = assay: Potency index, ratio of foretinib IC50 to test compound IC50 for antiproliferative activity against human PC-3 cells; type: functional
[4] = molecular target: Macrophage-stimulating protein receptor (Homo sapiens) (UniProt Q04912); assay: Inhibition of Ron (unknown origin) at 200 nM relative to control
PC-3 [5] = assay: cells; settings: Homo sapiens, PC-3, 72 h
Description: Antiproliferative activity against human PC-3 cells measured after 72 hrs by MTT assay

HT-29 [6] = assay: Potency index, ratio of foretinib IC50 to test compound IC50 for antiproliferative activity against human HT-29 cells; type: functional
HT-29 [7] = assay: Antiproliferative activity against human HT-29 cells measured after 72 hrs by MTT assay; settings: HT-29, 72 h
MDA-MB-231 = assay: Antiproliferative activity against human MDA-MB-231 cells measured after 72 hrs by MTT assay; type: functional, cell-based
NCI-H1975 = assay: Antiproliferative activity against human NCI-H1975 cells measured after 72 hrs by MTT assay; type: functional, cell-based; settings: NCI-H1975, 72 h
H1975/Gefitinib = assay: cells; settings: Homo sapiens, 72 h
MCF7 = assay: Potency index, ratio of foretinib IC50 to test compound IC50 for antiproliferative activity against human MCF7 cells; type: functional
[8] = molecular target: Vascular endothelial growth factor receptor 3 (Homo sapiens) (UniProt P35916); assay: Inhibition of Flt4 (unknown origin) at 200 nM relative to control
[9] = molecular target: Tyrosine-protein kinase receptor UFO (Homo sapiens) (UniProt P30530); settings: dose 100.0 nM, time 1.0 hrs
[10] = molecular target: Platelet-derived growth factor receptor beta (Homo sapiens, UniProt P09619); assay: Inhibition of human His-tagged PDGFRB cytoplasmic domain expressed in baculovirus expression system using peptide substrate measured after 1 hr by mobility shift assay
A549 = assay: cells; settings: Homo sapiens, A549, 72 h
Description: Antiproliferative activity against human A549 cells measured after 72 hrs by MTT assay

Sequence of Macrophage-stimulating protein receptor (Homo sapiens) (Q04912 25-304 limits assumed): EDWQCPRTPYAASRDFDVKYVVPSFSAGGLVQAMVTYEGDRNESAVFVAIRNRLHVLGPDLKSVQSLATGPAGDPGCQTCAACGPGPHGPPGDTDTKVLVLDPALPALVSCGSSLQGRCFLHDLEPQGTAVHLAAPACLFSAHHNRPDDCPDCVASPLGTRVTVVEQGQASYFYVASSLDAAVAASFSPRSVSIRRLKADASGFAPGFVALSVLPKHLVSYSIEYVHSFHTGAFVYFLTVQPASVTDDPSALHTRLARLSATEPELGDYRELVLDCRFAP
Sequence of Macrophage-stimulating protein receptor (Homo sapiens) (Q04912 310-1400 limits assumed): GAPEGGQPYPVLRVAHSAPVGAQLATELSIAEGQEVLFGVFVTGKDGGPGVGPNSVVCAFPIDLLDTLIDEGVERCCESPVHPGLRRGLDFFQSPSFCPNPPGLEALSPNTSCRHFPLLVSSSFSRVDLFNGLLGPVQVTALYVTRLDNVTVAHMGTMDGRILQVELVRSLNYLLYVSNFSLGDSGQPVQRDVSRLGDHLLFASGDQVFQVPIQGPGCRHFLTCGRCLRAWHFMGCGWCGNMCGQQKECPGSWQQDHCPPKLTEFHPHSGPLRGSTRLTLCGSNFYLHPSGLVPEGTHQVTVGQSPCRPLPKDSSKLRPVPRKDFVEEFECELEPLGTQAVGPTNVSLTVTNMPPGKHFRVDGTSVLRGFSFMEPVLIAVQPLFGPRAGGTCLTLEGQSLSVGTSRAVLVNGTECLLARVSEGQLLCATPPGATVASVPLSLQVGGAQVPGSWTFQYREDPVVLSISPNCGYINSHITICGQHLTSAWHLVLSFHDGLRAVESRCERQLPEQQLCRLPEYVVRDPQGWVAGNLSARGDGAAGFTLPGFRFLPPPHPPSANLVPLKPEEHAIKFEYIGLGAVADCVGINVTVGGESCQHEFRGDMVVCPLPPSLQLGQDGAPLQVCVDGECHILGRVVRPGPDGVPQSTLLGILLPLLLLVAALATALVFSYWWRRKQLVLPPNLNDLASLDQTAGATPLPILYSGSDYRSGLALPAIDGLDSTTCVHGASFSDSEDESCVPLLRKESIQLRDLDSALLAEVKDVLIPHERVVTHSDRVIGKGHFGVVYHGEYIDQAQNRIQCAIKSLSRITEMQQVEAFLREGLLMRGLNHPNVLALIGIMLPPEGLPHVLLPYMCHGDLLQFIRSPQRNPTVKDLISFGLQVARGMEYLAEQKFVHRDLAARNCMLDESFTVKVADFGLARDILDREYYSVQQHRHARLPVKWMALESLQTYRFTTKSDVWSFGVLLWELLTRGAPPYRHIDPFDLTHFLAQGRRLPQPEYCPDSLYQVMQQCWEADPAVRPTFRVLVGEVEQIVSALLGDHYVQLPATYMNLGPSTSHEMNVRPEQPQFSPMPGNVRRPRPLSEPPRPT
Sequence of Platelet-derived growth factor receptor beta (P09619 whole entry, the tested form may be a part): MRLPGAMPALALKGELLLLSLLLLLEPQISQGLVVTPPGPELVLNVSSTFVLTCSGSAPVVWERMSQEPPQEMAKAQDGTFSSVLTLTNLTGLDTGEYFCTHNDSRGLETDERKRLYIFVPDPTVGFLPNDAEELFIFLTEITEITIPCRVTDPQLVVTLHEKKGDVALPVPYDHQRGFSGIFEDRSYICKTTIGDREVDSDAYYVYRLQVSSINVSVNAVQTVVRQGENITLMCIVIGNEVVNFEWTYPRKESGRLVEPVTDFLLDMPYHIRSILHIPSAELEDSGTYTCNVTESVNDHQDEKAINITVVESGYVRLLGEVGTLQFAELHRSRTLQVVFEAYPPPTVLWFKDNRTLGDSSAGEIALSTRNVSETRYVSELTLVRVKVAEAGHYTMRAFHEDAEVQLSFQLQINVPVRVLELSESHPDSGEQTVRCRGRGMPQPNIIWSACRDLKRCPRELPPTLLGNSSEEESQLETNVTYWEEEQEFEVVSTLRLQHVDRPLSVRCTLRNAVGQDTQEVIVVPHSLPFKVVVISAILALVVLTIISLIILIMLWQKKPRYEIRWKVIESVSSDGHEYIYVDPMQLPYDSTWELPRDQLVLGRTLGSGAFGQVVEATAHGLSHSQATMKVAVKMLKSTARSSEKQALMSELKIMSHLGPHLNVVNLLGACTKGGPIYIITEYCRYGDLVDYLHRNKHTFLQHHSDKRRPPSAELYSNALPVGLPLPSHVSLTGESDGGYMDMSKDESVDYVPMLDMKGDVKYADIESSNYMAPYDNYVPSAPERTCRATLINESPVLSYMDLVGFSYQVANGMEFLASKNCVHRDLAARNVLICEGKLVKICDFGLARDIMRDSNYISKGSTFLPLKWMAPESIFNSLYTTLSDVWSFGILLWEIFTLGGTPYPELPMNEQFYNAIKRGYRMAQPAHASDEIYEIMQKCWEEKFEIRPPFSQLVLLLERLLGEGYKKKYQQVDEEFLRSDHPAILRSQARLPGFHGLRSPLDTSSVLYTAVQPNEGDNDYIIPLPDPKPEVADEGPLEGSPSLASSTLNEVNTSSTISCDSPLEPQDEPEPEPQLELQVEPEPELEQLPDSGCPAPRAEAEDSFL
Sequence of Vascular endothelial growth factor receptor 3 (Homo sapiens) (P35916 whole entry): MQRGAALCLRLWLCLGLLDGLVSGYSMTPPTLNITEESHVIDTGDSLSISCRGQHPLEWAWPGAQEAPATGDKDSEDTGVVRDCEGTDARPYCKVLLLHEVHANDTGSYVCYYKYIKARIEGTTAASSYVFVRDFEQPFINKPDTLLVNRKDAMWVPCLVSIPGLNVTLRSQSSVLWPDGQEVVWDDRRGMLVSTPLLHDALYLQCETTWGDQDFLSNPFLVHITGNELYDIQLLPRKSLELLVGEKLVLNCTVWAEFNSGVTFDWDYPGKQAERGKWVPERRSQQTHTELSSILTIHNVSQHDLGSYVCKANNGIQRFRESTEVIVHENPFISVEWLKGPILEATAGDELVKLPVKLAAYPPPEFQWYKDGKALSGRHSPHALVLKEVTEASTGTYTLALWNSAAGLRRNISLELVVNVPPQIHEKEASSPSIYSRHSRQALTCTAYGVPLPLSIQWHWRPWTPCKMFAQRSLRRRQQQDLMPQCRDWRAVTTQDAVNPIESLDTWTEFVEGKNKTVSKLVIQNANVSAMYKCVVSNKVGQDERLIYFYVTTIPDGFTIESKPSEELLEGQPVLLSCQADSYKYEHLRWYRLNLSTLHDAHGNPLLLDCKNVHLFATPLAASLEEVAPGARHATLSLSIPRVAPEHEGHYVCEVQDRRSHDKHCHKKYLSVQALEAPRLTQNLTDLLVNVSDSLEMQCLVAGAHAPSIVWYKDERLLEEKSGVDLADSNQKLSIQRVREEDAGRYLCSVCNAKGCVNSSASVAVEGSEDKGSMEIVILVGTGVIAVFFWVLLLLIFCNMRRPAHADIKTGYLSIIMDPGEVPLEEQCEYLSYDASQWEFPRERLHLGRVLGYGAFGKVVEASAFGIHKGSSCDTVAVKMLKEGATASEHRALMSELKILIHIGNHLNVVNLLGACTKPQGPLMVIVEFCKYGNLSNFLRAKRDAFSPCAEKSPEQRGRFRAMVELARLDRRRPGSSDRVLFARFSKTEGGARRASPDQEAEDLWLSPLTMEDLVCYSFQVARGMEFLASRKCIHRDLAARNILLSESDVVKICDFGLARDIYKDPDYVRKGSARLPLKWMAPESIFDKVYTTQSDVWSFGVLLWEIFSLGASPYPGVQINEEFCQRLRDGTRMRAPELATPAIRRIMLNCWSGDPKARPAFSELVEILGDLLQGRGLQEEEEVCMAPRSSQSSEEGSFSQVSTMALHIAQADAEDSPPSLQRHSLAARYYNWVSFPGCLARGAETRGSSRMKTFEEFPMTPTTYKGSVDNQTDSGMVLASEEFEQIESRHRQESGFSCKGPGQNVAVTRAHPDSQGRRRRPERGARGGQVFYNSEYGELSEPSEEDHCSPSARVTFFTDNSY

COc1cc2c(Oc3ccc(NC(=O)C4(c5nnc(-c6ccc(F)cc6)o5)CC4)cc3F)ccnc2cc1OCCCN1CCCCC1
IC50 [1]: 0.01 µM
IC50 [2]: > 0.2 µM
Ratio IC50 (PC-3 [3]): 1.54
inhibition [4]: > 80%
IC50 (PC-3 [5]): 0.59 µM
Ratio IC50 (HT-29 [6]): 1.57
IC50 (HT-29 [7]): 1.03 µM
Activity (MDA-MB-231): Active
IC50 (NCI-H1975): 0.099 µM
IC50 (H1975/Gefitinib): 0.107 µM
Ratio IC50 (MCF7): 2
inhibition [8]: > 80%
inhibition [9]: 93.7%
IC50 [10]: > 0.2 µM
IC50 (A549): 0.053 µM

Reference: ChEMBL document CHEMBL4680122, “Design, synthesis and biological evaluation of new Axl kinase inhibitors containing 1,3,4-oxadiazole acetamide moiety as novel linker” (Eur J Med Chem, 2020)
